Results as given in article PMC12677842, “Unveiling the Potential of a New β‐Cyclodextrin‐Suxibuzone Conjugate in Proteasome Regulation” (Chemmedchem, 2025).

Key:
[1] = molecular target: T1, human 20S proteasome (h20S core particle); test: fluorogenic AMC peptide cleavage by purified h20S (activation; Ch-L EC50 […], T-L EC50 […]); type: biochemical
T1 construct: gene PSMB5

[2] = tested on: T1, human 20S proteasome (h20S core particle); test: fluorogenic AMC peptide cleavage by h20S at […] (activation similar to suxibuzone); type: biochemical

EC50 [1]	Compound	fluorogenic AMC peptide cleavage by h20S at 5 and 10 uM (activation similar to s) [2]
4.4 ± 0.4 µM	CCCCC1(COC(=O)CCC(=O)O)C(=O)N(c2ccccc2)N(c2ccccc2)C1=O [SB, suxibuzone]	
	CCCCC1(COC(=O)CCC(=O)NCCO)C(=O)N(c2ccccc2)N(c2ccccc2)C1=O [SB-ETA]	both test compounds had activity similar to suxibuzone, with no statistically significant difference
